How the values were obtained:
CANTD = CANTD (Human immunodeficiency virus type 1 group M subtype B, UniProt P12493); conditions: binding to CANTD; read-out: equilibrium dissociation constant (KD); cited from earlier work
[1] = test system: recombinant luciferase-expressing HIV-1 bearing the envelope glycoprotein of the HIV-1YU-2 strain; test: Single-round infection assay, HIV-1 with YU-2 envelope on Cf2Th-CCR5 cells; conditions: Cf2Th-CCR5 cells; YU-2 envelope
producer cells (293T) = type: cell-based, human
Source text: Moreover, these compounds appeared to be working at different stages of the viral life-cycle—one at an early post-entry event (CMPD-A) and the other at an assembly or post-integration event in HIV-1 replication (CMPD-D).

[2] = test system: single-round competent HIV-1NL4-3 virus; test: Single-round assay, production of infectious virus from compound-treated producer cells
HIV-1NL4-3 CA = HIV-1NL4-3 CA (Human immunodeficiency virus type 1 group M subtype B, UniProt P12493); test: Surface plasmon resonance direct binding to HIV-1 CA; conditions: SPR
Procedure: Interaction analyses were performed on a Biacore 3000 optical biosensor (Biacore, Piscataway Township, NJ) with simultaneous monitoring of two flow cells Immobilization of the CA protein to CM7 sensor chips was performed following the standard amine coupling procedure according to the manufacturer's specifications. Briefly, carboxyl groups on the sensor chip surface were activated by injection of 50 μL of a solution containing 0.2 M EDC (1-ethyl-3-[3-dimethylamino-propyl]carbodiimide hydrochloride) and 0.05 M NHS(N-hydroxysuccinimide) at a flow rate of 5 μL min^−1. Next, the 50 μL of CA protein at a concentration of 6 μM in pH 5.0, 10 mM sodium acetate buffer was passed over the chip surface at 25° C. at a flow rate of 5 μL min^−1 Then, after unreacted protein had been washed out, excess active ester groups on the sensor surface were capped by the injection of 50 μL of 1 M ethanolamine (pH 8.0) at a flow rate of 5 μL min^−1. A reference surface with the nonspecific anti-gp120 antibody 17b (Thali et al., 1993, J. Virol. 67:3978-88) immobilized was generated at the same time under the same conditions and was used as background to correct nonspecific binding and for instrument and buffer artifacts.
Stock solutions of CMPD-E and CMPD-F were prepared by dissolving the compounds in 100% dimethyl sulfoxide (DMSO) to a final concentration of 10 mM. To prepare the sample for analysis, 30 μL of the compound stock solution was added to sample preparation buffer (25 mM Tris-HCl, 150 mM NaCl, pH 7.5) to a final volume of 1 mL and mixed thoroughly. Preparation of analyte in this manner ensured that the concentration of DMSO was matched with that of running buffer with 3% DMSO. Lower concentrations of each compound were then prepared by twofold serial dilutions into running buffer (25 mM Tris-HCl, 150 mM NaCl, 3% DMSO, pH 7.5). These compound dilutions were then injected over the control and CA surfaces at a flow rate of 50 μL min^−1, for a 2-min association phase, followed by a 5-min dissociation phase. […]

In the case of `Cc1ccc(NC(=O)NCCSCc2ccc(CN(C)C)o2)cc1Cl` [CAP-1, N-(3-chloro-4-methylphenyl)-N′-[2-[([5-[(dimethylamino)-methyl]-2-furyl]-methyl)-sulfanyl]ethyl]urea], the Kd (CANTD) is given as roughly 800 µM.
With `COC(=O)c1ccc(-c2nc(-c3ccc4oc5ccc(-c6nc(-c7ccc(C(=O)OC)cc7)[nH]c6-c6ccccc6)cc5c4c3)c(-c3ccccc3)[nH]2)cc1` [CMPD-B, dimethyl 4,4′-(4,4′-(dibenzo[b,d]furan-2,8-diyl)bis(5-phenyl-1H-imidazole-4,2-diyl))dibenzoate] the “activity in the single-round infection assay” value [1] was “lost all activity”.
With `O=C(O)c1ccc(-c2nc(-c3ccccc3)c(-c3ccc4oc5ccccc5c4c3)[nH]2)cc1` [CMPD-C, 4-(5-(dibenzo[b,d]furan-2-yl)-4-phenyl-1H-imidazol-2-yl)benzoic acid] the “activity in the single-round infection assay” value [1] was “retained the activity of the parental molecule”.
In the case of `Cc1ccc(C(C(=O)NC2CCCCC2)N(Cc2ccccc2Cl)C(=O)c2snc(C(=O)NC3CCCCC3)c2N)o1` (stereo not shown) [CMPD-D, 4-amino-N5-(2-chlorobenzyl)-N3-cyclohexyl-N5-(2-(cyclohexylamino)-1-(5-methylfuran-2-yl)-2-oxoethyl)isothiazole-3,5-dicarboxamide], the “activity in the single-round infection assay” value [1] is reported as “not to have any effect on HIV-1 infection”, the “LDH release versus untreated cells” value (producer cells (293T)) is reported as “Neither CMPD-A nor CMPD-D promoted LDH release” and the “antiretroviral activity, assembly or post-integration event” value [2] is reported as “significant antiretroviral activity”.
With `CC1(C)CC(NC(=O)C(=O)Nc2ccc(Cl)cc2)CC(C)(C)N1` [CMPD-F, N1-(4-chlorophenyl)-N2-(2,2,6,6-tetramethylpiperidin-4-yl)oxalamide, reference compound] the “interaction with sensor-chip immobilized HIV-1 CA” value (HIV-1NL4-3 CA) was “displayed no such interaction”.

Source: patent US20130165489A1, “Small Molecule Modulators of HIV-1 Capsid Stability and Methods Thereof” (The Trustees of the University of Pennsylvania, priority 2010, published 2013)
